# Experimental data reported in patent US8309685B2 (Celgene Avilomics Research, Inc., priority 2007, dated 2012).
# Read-outs that look alike come from different tables or passages of the source.
# Legend:
# [1] = molecular target: T1, A156T mutant of the HCV NS3/4A 1b protease enzyme (Hepatitis C virus genotype 1b, UniProt P26663, A1182T); assay: HCV Protease FRET Assay (IC50), A156T mutant; format: biochemical
# T1 construct: 10× stocks of NS3/4A protease enzyme from Bioenza (Mountain View, Calif.); purchased Bioenza (Mountain View, Calif.)
# [2] = molecular target: T2, D168A mutant of the HCV NS3/4A 1b protease enzyme (Hepatitis C virus genotype 1b, UniProt P26663, D1194A); assay: HCV Protease FRET Assay (IC50), D168A mutant; format: biochemical
# T2 construct: 10× stocks of NS3/4A protease enzyme from Bioenza (Mountain View, Calif.); purchased Bioenza (Mountain View, Calif.)
# [3] = tested on: HCV RNA replicon in cell line ET (luc-ubi-neo/ET), human Huh7 hepatoma; assay: Method A: HCV RNA replicon antiviral assay (luciferase, ET cell line); format: cell-based, Hepatitis C virus; details: Hepatitis C virus, Huh-7
# Procedure, shortened: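 ET replicon cells (Huh7 carrying luciferase-reporter HCV replicon) plated at 5×10^3 cells/well and exposed 72 hr to six 3-fold drug concentrations in DMEM/5% FBS. Replicon luciferase gave EC50/EC90; CytoTox-1 cell counts gave IC50 (viability); […]. Interferon alpha-2b served as positive control.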
# [4] = molecular target: T3, wild type HCV NS3/4A 1b protease enzyme (Hepatitis C virus genotype 1b, UniProt P26663); assay: HCV Protease FRET Assay (IC50_APP), wild type; format: biochemical; details: read-out: IC50_APP, WT; apparent IC50, wild type NS3/4A 1b
# T3 construct: 10× stocks of NS3/4A protease enzyme from Bioenza (Mountain View, Calif.); purchased Bioenza (Mountain View, Calif.)
# [5] = molecular target: T1, A156T mutant of the HCV NS3/4A 1b protease enzyme; assay: HCV Protease FRET Assay (IC50_APP), A156T mutant; format: biochemical
# [6] = read-out: Inhibition, HCV A156T, A156T enzyme, FRET assay
# [7] = read-out: Inhibition, HCV D168A, D168A enzyme, FRET assay
# [8] = Replicon, assay of Example 22, 72 hr, read-out: Inhibition, Replicon
# [9] = assay described in Example 22, read-out: Replicon (IC50)
# [10] = apparent IC50, A156T mutant; read-out: IC50_APP, HCV A156T
Structure (SMILES),"IC50 [1, 6] [µM]","IC50 [2, 7] [µM]",IC90 ([3]; assay described in Example 22) [µM],"IC50 [3, 8] [µM]","IC50 [3, 9] [µM]",IC50 [4] [µM],"IC50 ([5]; read-out: IC50_APP, HCV A156T; apparent IC50, A156T mutant) [µM]","IC50 [5, 10] [µM]","IC50 ([1]; read-out: Comparative IC50 Values, A156T, biochemical assay) [µM]","IC50 ([2]; read-out: Comparative IC50 Values, D168A, biochemical assay) [µM]","IC50 ([3]; WT, cell-based assay, methods of the Examples, read-out: Comparative IC50 Values, WT) [µM]"
"C=C[C@@H]1C[C@]1(NC(=O)[C@@H]1C[C@@H](Oc2cc(-c3ccccc3)nc3cc(OC)ccc23)CN1C(=O)[C@H](CNC(=O)CCl)NC(=O)OC(C)(C)C)C(=O)NS(=O)(=O)c1ccccc1 [Compound I-7, N-[(1,1-dimethylethoxy)carbonyl]-3-[(chloroacetyl)amino]-L-alanyl-(4R)-4-[(7-methoxy-2-phenyl-4-quinolinyl)oxy]-L-prolyl-1-amino-2-ethenyl-N-(phenylsulfonyl)-(1R,2S)-cyclopropanecarboxamide]",0.01 to 0.1,0.01 to 0.1,0.1 to 1,0.01 to 0.1,0.01 to 0.1,< 0.01,0.1 to 1,–,–,–,–
"C=CC(=O)NCC(=O)N1C[C@H](Oc2cc(-c3ccccc3)nc3cc(OC)ccc23)C[C@H]1C(=O)N[C@]1(C(=O)NS(=O)(=O)c2ccccc2)C[C@H]1C=C [Compound I-27, (2S,4R)-1-(2-acrylamidoacetyl)-4-(7-methoxy-2-phenylquinolin-4-yloxy)-N-((1R,2S)-1-(phenylsulfonylcarbamoyl)-2-vinylcyclopropyl)pyrrolidine-2-carboxamide]",0.01 to 0.1,0.01 to 0.1,0.1 to 1,0.01 to 0.1,0.1 to 1,< 0.01,–,0.1 to 1,–,–,–
"C=CC(=O)NC[C@H](NC(=O)OC(C)(C)C)C(=O)N1C[C@H](Oc2cc(-c3ccccc3)nc3cc(OC)ccc23)C[C@H]1C(=O)N[C@]1(C(=O)NS(=O)(=O)c2ccccc2)C[C@H]1C=C [Compound I-3, N-[(1,1-dimethylethoxy)carbonyl]-3-[(2-propenoyl)amino]-L-alanyl-(4R)-4-[(7-methoxy-2-phenyl-4-quinolinyl)oxy]-L-prolyl-1-amino-2-ethenyl-N-(phenylsulfonyl)-(1R,2S)-cyclopropanecarboxamide]",0.01 to 0.1,0.01 to 0.1,–,0.01 to 0.1,0.01 to 0.1,< 0.01,–,1 to 10,0.018,0.045,0.02
